Assay results as given in US6903052B2, “Nematicidal compositions and methods” (Divergence, Inc., priority 2002, dated 2005).

Tests used:
[1] = system: C. elegans; experiment: Rescue of C. elegans delta-12 FAT RNAi feeding phenotype by fatty acid methyl esters; assay type: cell-based, Caenorhabditis elegans; conditions: 3 mM added to the NGM media
Description: RNAi by feeding: C. elegans can be grown on lawns of E. coli genetically engineered to produce double stranded RNA (dsRNA) designed to inhibit delta-12 fat-2 expression. Briefly, E. coli were transformed with a genomic fragment of a portion of the C. elegans fat-2 gene sequence, specifically a fragment 651 nucleotides long, containing the entire first exon and terminating just before the conserved intron splice junction between the first exon and first intron. This construct encodes approximately the first 217 amino acids of the C. elegans delta-12 FAT gene. The 651 nucleotide genomic fragment was cloned into an E. coli expression vector between opposing T7 polymerase promoters. The clone was then transformed into a strain of E. coli that carries an IPTG-inducible T7 polymerase. As a control, E. coli was transformed with a gene encoding the Green Fluorescent Protein (GFP). Feeding RNAi was initiated from C. elegans eggs or from C. elegans […]. […] When feeding RNAi was started from C. elegans L4 larvae at 23° C. on NGM plates containing IPTG and E. coli expressing the C. elegans […] […] The sequence of the fat-2 gene is of sufficiently high complexity (i.e., unique) such that the RNAi is not likely to represent cross reactivity with other genes. […]

[2] = system: C. elegans; experiment: Nematicidal activity of single fatty acid methyl ester emulsions against Caenorhabditis elegans (Example 4); assay type: cell-based
Experimental: Mixed stage Caenorhabditis elegans were washed off plates seeded with OP50 bacteria using M9 solution. 250 μl of the M9 solution, which contained about 50 worms, was pipetted into each well of a 24-well plate.
(§1) Fatty acid methyl ester emulsions were prepared following the teachings of Kim et al (U.S. Pat. No. 5,698,592). Briefly, 1 ml 1% stock solution emulsions were prepared by mixing 10 μl of fatty acid methyl ester with 20 μl of the surfactant Igepal CO 630 in a 1.5 ml eppendorf tube. After careful mixing of fatty acid and Igepal CO 630, 850 μl of ddH20 was added and mixed by gentle pipetting until a homogeneous solution was obtained. Finally, 120 μl of pure isopropanol was added and mixed by gentle pipetting. This stock solution was then used to produce various fatty acid methyl ester dilution emulsions in 24-well plate assays.
To each well, fatty acid emulsions or control emulsions were added and rapidly mixed by swirling. Nematode viability was scored by visual observation and motility assays at various time points 24 hours following addition of emulsions or controls. The fatty acid emulsions tested were methyl esters of nonanoic (pelargonic) acid, ricinoleic acid, vernolic acid, linoleic acid, oleic acid, and control emulsions lacking fatty acids.

[3] = system: C. elegans; experiment: Nematicidal activity of fatty acid methyl ester emulsions, spectrum (Example 8); assay type: cell-based, Caenorhabditis elegans; conditions: C. elegans mixed stage
Experimental: (§2) Briefly, the indicated fatty acid emulsions were added and rapidly mixed by swirling. Nematode viability was scored by visual observation and motility assays 24 hours following addition of emulsions (48 hours for plant parasitic nematodes Meloidogyne and Heterodera species). The fatty acid emulsions tested were methyl esters of nonanoic (pelargonic) acid, ricinelaidic acid, ricinoleic acid, vernolic acid, linoleic acid, and oleic acid. […] Results shown are mean % values obtained from multiple independent experiments
(§3) The Caenorhabiditis elegans were mixed stage populations. Similar effects seen on several other free-living nematode species. The Parastrongyloides trichosuri (parasite of Australian bushtail possum) were dauer-like infective 3rd stage larva. Similar effects are also seen against free-living stages. The Meloidogyne incognita and Meloidogyne javanica (root knot nematode) were 2nd stage juveniles (dauer-like infective stage). The Heterodera glycines (soybean cyst nematode) were 2nd stage juveniles (dauer-like infective stage). Finally, the Pratylenchus scribneri (corn lesion nematode) were mixed stage populations.

[4] = system: P. trichosuri; experiment: as above; assay type: cell-based, Parastrongyloides trichosuri; conditions: P. trichosuri infective 3rd stage larva
Experimental: as §2, §3

[5] = system: M. incognita; experiment: as above; assay type: cell-based, Meloidogyne incognita; conditions: M. incognita 2nd stage juveniles, scored at 48 hours
Experimental: as §2, §3

[6] = system: M. javanica; experiment: as above; assay type: cell-based, Meloidogyne javanica; conditions: M. javanica 2nd stage juveniles, scored at 48 hours
Experimental: as §2, §3

[7] = system: H. glycines; experiment: as above; assay type: cell-based, Heterodera glycines; conditions: H. glycines 2nd stage juveniles, scored at 48 hours
Experimental: as §2, §3

[8] = system: P. scribneri; experiment: as above; assay type: cell-based, Pratylenchus scribneri; conditions: P. scribneri mixed stage
Experimental: as §2, §3

[9] = system: C. elegans; experiment: Nematicidal activity of emulsions made with Tween-20 (replacing Igepal CO 630) against C. elegans; assay type: cell-based, Caenorhabditis elegans; conditions: Tween-20 emulsion
Experimental: Some nematodes assayed as described in Example 9 lacked tolerance to emulsions made with the surfactant Igepal CO 630. For this reason some assays were repeated with Tween-20-based emulsions.
as §1, with “Briefly,” for “Fatty acid methyl ester emulsions were prepared following the teachings of Kim et al (U.S. Pat. No. 5,698,592). Briefly,”, “Tween-20” for “Igepal CO 630”, “Tween-20,” for “Igepal CO 630,”

[10] = system: C. elegans; experiment: Nematicidal activity of emulsions made with cyclodextrins (replacing isopropanol) against C. elegans; assay type: cell-based, Caenorhabditis elegans; conditions: igepal CO 630 / 2-Hydroxypropyl-β-Cyclodextrin emulsion
Description: In an effort to increase the bioavailability of fatty acid methyl esters in emulsions, isopropanol was replaced with one of two cyclodextrins (Methyl-β-Cyclodextrin or 2-Hydroxypropyl-β-Cyclodextrin).

[11] = system: M. javanica; experiment: Nematicidal activity of fatty acid methyl ester emulsions against root knot nematode J2 larvae (Example 6); assay type: cell-based, Meloidogyne javanica; conditions: 0.1% emulsion; 48 hours incubation, counted about 24 hours after transfer to plates
Experimental: as §1
(§4) Meloidogyne incognita and javanica were prepared from tomato roots. The roots were bleached and the debris was separated from the J2 larvae and eggs by filtration followed by sucrose density gradient centrifugation. Eggs were hatched over 4 days at 15° C. and the J2 larvae were collected by passage though a filter, followed by centrifugation.
(§5) Nematodes and emulsions were incubated with shaking at room temperature for 48 hours. The contents of each well were transferred to a small spot on individual NGM plates lacking bacteria. About 24 hours after the transfer to plates, worms on and off the inoculation spot were counted as not viable or viable, respectively. Worms were considered viable if they had crawled away from the inoculation spot, or if they were moving. Worms were considered non-viable if they remained at the inoculation spot.

[12] = system: M. incognita; experiment: as above; assay type: cell-based, Meloidogyne incognita; conditions: 0.1% emulsion; 48 hours incubation, counted about 24 hours after transfer to plates
Experimental: as §1, §4, §5

[13] = system: tomato seedlings; experiment: Phytotoxicity evaluation on tomato seedlings; assay type: in vivo; conditions: 250 μl of 1% emulsion applied to stem-media interface of two-week seedlings
Experimental: Sterilized tomato seeds were germinated in magenta jars containing Gamborg's agar media. After two weeks of growth, seedlings were treated with 250 μl of 1% fatty acid methyl ester emulsion (nonanoic acid, ricinoleic acid, ricinelaidic acid, oleic acid, or a control emulsion lacking any fatty acid), applied directly to the stem-media interface. Tomato seedlings were scored at various times after application of emulsions.

[14] = system: B. malayi; experiment: Nematicidal activity of tween-based emulsions against microfilarial nematodes; assay type: cell-based, Brugia malayi
Experimental: To each well, tween-based fatty acid emulsions were added and rapidly mixed by swirling. Nematode microfilaria viability was scored by visual observation of motility at 24 and 48 hours following addition of emulsions. The fatty acid emulsions tested were methyl esters of ricinoleic acid, vernolic acid, ricinelaidic acid, oleic acid, and control emulsions lacking fatty acids. The results of this study are presented in Table 7 as the percentage of non-motile microfilaria 24 hours after inoculation and in Table 8 as the percentage of non-motile microfilaria 48 hours after inoculation

[15] = system: everted hamster jejunal and ileal segments; conditions: Gaginella et al. (1975); cited from earlier work
[16] = system: isolated intestinal epithelial cells; conditions: Gaginella et al. (1977); cited from earlier work

Structure (SMILES) | Rescue of the delta-12 FAT RNAi feeding phenotype [1] | Percentage of Worm Death ([2]; 0.003% emulsion, 1 hr) | Percentage of Worm Death ([2]; 0.003% emulsion, 6 hr) | Percentage of Worm Death ([2]; 0.003% emulsion, 24 hr) | Percentage of Worm Death ([2]; 0.1% emulsion, 1 hr) | Percentage of Worm Death ([2]; 0.1% emulsion, 6 hr) | Percentage of Worm Death ([2]; 0.1% emulsion, 24 hr) | % Worm Death (24 hr) ([3]; 0.01% solution) | % Worm Death (24 hr) ([3]; 0.1% solution) | % Worm Death (24 hr) ([4]; 0.01% solution) | % Worm Death (24 hr) ([4]; 0.1% solution) | % Worm Death (24 hr) ([7]; 0.001% solution) | % Worm Death (24 hr) ([7]; 0.01% solution) | % Worm Death (24 hr) ([7]; 0.1% solution) | % Worm Death (24 hr) ([8]; 0.01% solution) | % Worm Death (24 hr) ([8]; 0.1% solution) | other results
CCCCC/C=C\C/C=C\CCCCCCCC(=O)OC [Linoleic Acid (C18-methyl ester), linoleic acid methyl ester, reference compound] | partial rescue | 0-5% | 0-5% | 0-5% | 0-5% | 0-5% | 0-5% | <10% | <10% | ˜25% | ˜25% | <20% | <20% | <20% | <20% | <20% | % Worm Death (24 hr) ([3]; 0.001% solution): <10%; % Worm Death (24 hr) ([5]; 0.01% solution): 20%; % Worm Death (24 hr) ([5]; 0.1% solution): 20%; % Worm Death (48 hr) ([6]; 0.01% solution): 0-5%; % Worm Death (48 hr) ([6]; 0.1% solution): 20%; % Worm Death (24 hr) ([9]; 0.01% solution): <10%; % Worm Death (24 hr) ([9]; 0.1% solution): <10%; % Worm Death (24 hr) ([10]; 0.01% solution): <10%; % Worm Death (24 hr) ([10]; 0.1% solution): <10%
CCCCCCCC/C=C\CCCCCCCC(=O)OC [Oleic Acid (C18-methyl ester), oleic acid methyl ester, reference compound] | does not rescue | 0-5% | 0-5% | 0-5% | 0-5% | 0-5% | 0-5% | <10% | <10% | ˜10% | ˜10% | <10% | <10% | <10% | <20% | <20% | M. javanica (% not viable) [11]: 20%; M. incognita (% not viable) [12]: 25%; Visible effects on tomato seedlings [13]: none of the tomatoes treated with the other fatty acid methyl ester emulsions showed visible effects; percentage of non-motile microfilaria ([14]; 24 hrs post-inoculation, 0.0008%): 0%; percentage of non-motile microfilaria ([14]; 24 hrs post-inoculation, 0.0016%): 0%; percentage of non-motile microfilaria ([14]; 24 hrs post-inoculation, 0.003%): 0%; percentage of non-motile microfilaria ([14]; 24 hrs post-inoculation, 0.005%): 0%; percentage of non-motile microfilaria ([14]; 24 hrs post-inoculation, 0.0067%): 0%; percentage of non-motile microfilaria ([14]; 24 hrs post-inoculation, 0.008%): 0%; percentage of non-motile microfilaria ([14]; 48 hrs post-inoculation, 0.0008%): 0%; percentage of non-motile microfilaria ([14]; 48 hrs post-inoculation, 0.0016%): 0%; percentage of non-motile microfilaria ([14]; 48 hrs post-inoculation, 0.003%): 0%; percentage of non-motile microfilaria ([14]; 48 hrs post-inoculation, 0.005%): 0%; percentage of non-motile microfilaria ([14]; 48 hrs post-inoculation, 0.0067%): 0%; percentage of non-motile microfilaria ([14]; 48 hrs post-inoculation, 0.008%): 0%
CCCCCC[C@@H](O)C/C=C\CCCCCCCC(=O)O [Ricinoleic acid, reference compound] |  |  |  |  |  |  |  |  |  |  |  |  |  |  |  |  | Effect on water (and electrolyte) absorption [15]: inhibitory effect on water and electrolyte absorption; Cytotoxicity [16]: cytotoxic
